Measured values reported in US20240059698A1 (Accutar Biotechnology Inc., priority 2022, published 2024).

What was measured:
Type in all cases: cell-based
HCC827 cells = experiment: Cell growth inhibition (CellTiter-Glo), HCC827; details: Homo sapiens, 72 h, 3 days
Method in brief: (§1)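 Readout was CellTiter-Glo luminescence after 3-day compound treatment at 37° C. Cells were seeded at 5000/well the previous night: HCC827 in RPMI/10% FBS, A431 in DMEM/10% FBS.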

[1] = test system: HCC827-SVD cells (human EGFR exon 20 insertion mutant D770_N771insSVD); experiment: Cell growth inhibition (CellTiter-Glo), HCC827-SVD; details: 72 h, 3 days
Method in brief: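 Growth read by CellTiter-Glo luminescence after 3-day compound exposure at 37 °C. Engineered clonal HCC827 line (native EGFR deleted by CRISPR, mutant EGFR re-expressed) plated at 5000 cells/well in 10% FBS RPMI the night before dosing.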

[2] = test system: HCC827-ASV cells (human EGFR exon 20 insertion mutant V769_D770insASV); experiment: Cell growth inhibition (CellTiter-Glo), HCC827-ASV; details: 72 h, HCC827-ASV cells, 3 days, CellTiter-Glo, read-out: Cell growth inhibition, GI50 (nM) HCC827-ASV
Method in brief: (§2)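 Growth in RPMI with 10% FBS was measured by CellTiter-Glo luminescence after 3 days at 37 °C with test compounds across a concentration range. The single-clone HCC827 lines carry a lentiviral YVMA (ERBB2) or ASV (EGFR) exon 20 insertion, with endogenous EGFR removed via sgRNA/Cas9.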

[3] = test system: HCC827-YVMA cells (human ERBB2 exon20 insertion mutant A775_G776ins YVMA); experiment: Cell growth inhibition (CellTiter-Glo), HCC827-YVMA; details: 72 h, HCC827-YVMA cells, 3 days, CellTiter-Glo, read-out: Cell growth inhibition, GI50 (nM) HCC827-YVMA
Method in brief: as §2

A431 cells = experiment: Cell growth inhibition (CellTiter-Glo), A431; details: Homo sapiens, A-431, 72 h, 3 days
Method in brief: as §1

GI50 (HCC827 cells) [nM]	GI50 [1] [nM]	GI50 [2] [nM]	GI50 [3] [nM]	GI50 (A431 cells) [nM]	SMILES
50 to 200	< 50	< 50	< 50	> 1000	C=CC(=O)N1CCC(c2ccn3ncnc(Nc4ccc(Oc5ccnc(N6C[C@@H](C)O[C@@H](C)C6)c5)cc4F)c23)CC1 [Compound 199, 1-(4-(4-((4-((2-((2R,6S)-2,6-dimethylmorpholino)pyridin-4-yl)oxy)-2-fluorophenyl)amino)pyrrolo[2,1-f][1,2,4]triazin-5-yl)piperidin-1-yl)prop-2-en-1-one]
> 1000	> 1000	> 1000	200 to 1000	> 1000	C=CC(=O)N1CCC(c2ccn3ncnc(Nc4ccc(Oc5ccnc(N6CCN(C)CC6)c5)cc4F)c23)CC1 [Compound 201, 1-(4-(4-((2-fluoro-4-((2-(4-methylpiperazin-1-yl)pyridin-4-yl)oxy)phenyl)amino)pyrrolo[2,1-f][1,2,4]triazin-5-yl)piperidin-1-yl)prop-2-en-1-one]
> 1000	50 to 200	200 to 1000	50 to 200	> 1000	C=CC(=O)N1CCC(c2ccn3ncnc(Nc4ccc(Oc5ccnc(N6CCC[C@@H](OC)C6)c5)cc4F)c23)CC1 [Compound 202, (R)-1-(4-(4-((2-fluoro-4-((2-(3-methoxypiperidin-1-yl)pyridin-4-yl)oxy)phenyl)amino)pyrrolo[2,1-f][1,2,4]triazin-5-yl)piperidin-1-yl)prop-2-en-1-one]
